# According to ChEMBL document CHEMBL1275483, “Staphylococcus aureus cell wall stress stimulon gene-lacZ fusion strains: potential for use in screening for cell wall-active antimicrobials” (2008):
# Where a SMILES comes first, the peptide text is derived from it. Bridges are numbered along the chain shown (N, C = ends). [ ]: non-standard residue; d: D form. The star is where a group is joined. Ileψ(thiazoline)Cys = CC[C@H](C)[C@H](N)C1=N[C@H](C(=O)*)CS1; dOrn = NCCC[C@@H](N)C(=O)O
# Tests used:
# Format in all cases: functional
# Staphylococcus aureus [1] = experiment: Induction of PsgtB::lacZ gene expression in Staphylococcus aureus SH1000 at 13.4 ug/ml after 2 hrs by beta-galactosidase reporter gene assay relative to untreated control
# Staphylococcus aureus [2] = experiment: Induction of PtcaA::lacZ gene expression in Staphylococcus aureus SH1000 at 13.4 ug/ml after 2 hrs by beta-galactosidase reporter gene assay relative to untreated control
# Staphylococcus aureus [3] = experiment: Induction of PlytR::lacZ gene expression in Staphylococcus aureus SH1000 at 13.4 ug/ml after 2 hrs by beta-galactosidase reporter gene assay relative to untreated control
# Staphylococcus aureus [4] = experiment: Induction of Ppbp2::lacZ gene expression in Staphylococcus aureus SH1000 at 13.4 ug/ml after 2 hrs by beta-galactosidase reporter gene assay relative to untreated control
# Staphylococcus aureus [5] = experiment: Induction of PvraSr::lacZ gene expression in Staphylococcus aureus SH1000 at 13.4 ug/ml after 2 hrs by beta-galactosidase reporter gene assay relative to untreated control
# Staphylococcus aureus [6] = experiment: Antimicrobial activity against beta-lactamase producing Staphylococcus aureus SH1000
# Staphylococcus aureus [7] = experiment: Induction of PlytR::lacZ gene expression in Staphylococcus aureus SH1000 at 150 ug/ml after 2 hrs by beta-galactosidase reporter gene assay relative to untreated control
# Staphylococcus aureus [8] = experiment: Induction of PvraSr::lacZ gene expression in Staphylococcus aureus SH1000 at 150 ug/ml after 2 hrs by beta-galactosidase reporter gene assay relative to untreated control
# Staphylococcus aureus [9] = experiment: Induction of PtcaA::lacZ gene expression in Staphylococcus aureus SH1000 at 150 ug/ml after 2 hrs by beta-galactosidase reporter gene assay relative to untreated control
# Staphylococcus aureus [10] = experiment: Induction of PsgtB::lacZ gene expression in Staphylococcus aureus SH1000 at 150 ug/ml after 2 hrs by beta-galactosidase reporter gene assay relative to untreated control
# Staphylococcus aureus [11] = experiment: Induction of Ppbp2::lacZ gene expression in Staphylococcus aureus SH1000 at 150 ug/ml after 2 hrs by beta-galactosidase reporter gene assay relative to untreated control
# Staphylococcus aureus [12] = experiment: Induction of PtcaA::lacZ gene expression in Staphylococcus aureus SH1000 at 2.5 ug/ml after 2 hrs by beta-galactosidase reporter gene assay relative to untreated control
# Staphylococcus aureus [13] = experiment: Induction of PvraSr::lacZ gene expression in Staphylococcus aureus SH1000 at 2.5 ug/ml after 2 hrs by beta-galactosidase reporter gene assay relative to untreated control
# Staphylococcus aureus [14] = experiment: Induction of PsgtB::lacZ gene expression in Staphylococcus aureus SH1000 at 2.5 ug/ml after 2 hrs by beta-galactosidase reporter gene assay relative to untreated control
# Staphylococcus aureus [15] = experiment: Induction of PlytR::lacZ gene expression in Staphylococcus aureus SH1000 at 2.5 ug/ml after 2 hrs by beta-galactosidase reporter gene assay relative to untreated control
# Staphylococcus aureus [16] = experiment: Induction of Ppbp2::lacZ gene expression in Staphylococcus aureus SH1000 at 2.5 ug/ml after 2 hrs by beta-galactosidase reporter gene assay relative to untreated control
# Staphylococcus aureus [17] = experiment: Induction of PvraSr::lacZ gene expression in Staphylococcus aureus SH1000 at 3 ug/ml after 2 hrs by beta-galactosidase reporter gene assay relative to untreated control
# Staphylococcus aureus [18] = experiment: Induction of PlytR::lacZ gene expression in Staphylococcus aureus SH1000 at 3 ug/ml after 2 hrs by beta-galactosidase reporter gene assay relative to untreated control
# Staphylococcus aureus [19] = experiment: Induction of PsgtB::lacZ gene expression in Staphylococcus aureus SH1000 at 3 ug/ml after 2 hrs by beta-galactosidase reporter gene assay relative to untreated control
# Staphylococcus aureus [20] = experiment: Induction of PtcaA::lacZ gene expression in Staphylococcus aureus SH1000 at 3 ug/ml after 2 hrs by beta-galactosidase reporter gene assay relative to untreated control
# Staphylococcus aureus [21] = experiment: Induction of Ppbp2::lacZ gene expression in Staphylococcus aureus SH1000 at 3 ug/ml after 2 hrs by beta-galactosidase reporter gene assay relative to untreated control
# Staphylococcus aureus [22] = experiment: Induction of PtcaA::lacZ gene expression in Staphylococcus aureus SH1000 at 0.05 ug/ml after 2 hrs by beta-galactosidase reporter gene assay relative to untreated control
# Staphylococcus aureus [23] = experiment: Induction of PsgtB::lacZ gene expression in Staphylococcus aureus SH1000 at 0.05 ug/ml after 2 hrs by beta-galactosidase reporter gene assay relative to untreated control
# Staphylococcus aureus [24] = experiment: Induction of PvraSr::lacZ gene expression in Staphylococcus aureus SH1000 at 0.05 ug/ml after 2 hrs by beta-galactosidase reporter gene assay relative to untreated control
# Staphylococcus aureus [25] = experiment: Induction of Ppbp2::lacZ gene expression in Staphylococcus aureus SH1000 at 0.05 ug/ml after 2 hrs by beta-galactosidase reporter gene assay relative to untreated control
# Staphylococcus aureus [26] = experiment: Induction of PlytR::lacZ gene expression in Staphylococcus aureus SH1000 at 0.05 ug/ml after 2 hrs by beta-galactosidase reporter gene assay relative to untreated control
smiles,measurement,setting,value
CC[C@H](C)[C@H](N)C1=N[C@H](C(=O)N[C@@H](CC(C)C)C(=O)N[C@H](CCC(=O)O)C(=O)N[C@H](C(=O)N[C@H]2CCCCNC(=O)[C@H](CC(N)=O)NC(=O)[C@@H](CC(=O)O)NC(=O)[C@H](Cc3cnc[nH]3)NC(=O)[C@@H](Cc3ccccc3)NC(=O)[C@H]([C@@H](C)CC)NC(=O)[C@@H](CCCN)NC2=O)[C@@H](C)CC)CS1 [BACITRACIN] ({Ileψ(thiazoline)Cys}-L[dE]IK[dOrn]I[dF]H[dD]N; lactam 4-C),fold change (FC),Staphylococcus aureus [1],4.63
same,fold change (FC),Staphylococcus aureus [2],3.99
same,fold change (FC),Staphylococcus aureus [3],1.94
same,fold change (FC),Staphylococcus aureus [4],3.7
same,fold change (FC),Staphylococcus aureus [5],1.92
same,MIC,Staphylococcus aureus [6],2 µg/mL
N[C@@H]1CONC1=O [CYCLOSERINE],fold change (FC),Staphylococcus aureus [7],3.13
same,MIC,Staphylococcus aureus [6],1 µg/mL
same,fold change (FC),Staphylococcus aureus [8],4.08
same,fold change (FC),Staphylococcus aureus [9],4.6
same,fold change (FC),Staphylococcus aureus [10],15.63
same,fold change (FC),Staphylococcus aureus [11],3.41
CC[C@H]1OC(=O)[C@H](C)[C@@H](O[C@H]2C[C@@](C)(OC)[C@@H](O)[C@H](C)O2)[C@H](C)[C@@H](O[C@@H]2O[C@H](C)C[C@H](N(C)C)[C@H]2O)[C@](C)(O)C[C@@H](C)C(=O)[C@H](C)[C@@H](O)[C@]1(C)O [ERYTHROMYCIN],fold change (FC),Staphylococcus aureus [12],1.12
same,fold change (FC),Staphylococcus aureus [13],0.8
same,fold change (FC),Staphylococcus aureus [14],0.93
same,MIC,Staphylococcus aureus [6],2 µg/mL
same,fold change (FC),Staphylococcus aureus [15],1.04
same,fold change (FC),Staphylococcus aureus [16],1.15
O=C(N[C@H](CO)[C@H](O)c1ccc([N+](=O)[O-])cc1)C(Cl)Cl [CHLORAMPHENICOL],fold change (FC),Staphylococcus aureus [17],0.88
same,fold change (FC),Staphylococcus aureus [18],1.07
same,fold change (FC),Staphylococcus aureus [19],0.93
same,MIC,Staphylococcus aureus [6],0.5 µg/mL
same,fold change (FC),Staphylococcus aureus [20],1.04
same,fold change (FC),Staphylococcus aureus [21],0.94
CO[C@H]1/C=C/O[C@@]2(C)Oc3c(C)c(O)c4c(O)c(c(/C=N/N5CCN(C)CC5)c(O)c4c3C2=O)NC(=O)/C(C)=C\C=C\[C@H](C)[C@H](O)[C@@H](C)[C@@H](O)[C@@H](C)[C@H](OC(C)=O)[C@@H]1C [RIFAMPIN],fold change (FC),Staphylococcus aureus [22],0.99
same,fold change (FC),Staphylococcus aureus [23],1.19
same,fold change (FC),Staphylococcus aureus [24],1.2
same,MIC,Staphylococcus aureus [6],0.05 µg/mL
same,fold change (FC),Staphylococcus aureus [25],1.9
same,fold change (FC),Staphylococcus aureus [26],0.98
